# Results taken from patent US7049313B2, “ATM inhibitors” (Kudos Pharmaceuticals Ltd., priority 2002, dated 2006).
# Biological target: T1, ATM (Homo sapiens, UniProt Q13315)
# T1 construct: ATM protein was immunoprecipitated from HeLa cell nuclear extract; endogenous in cells; host or cells: HeLa cell nuclear extract (immunoprecipitate)
# Assay: In vitro ATM inhibition assay (phosphorylation of GSTp53N66 on serine 15)
# Format: biochemical
# Experimental: In vitro ATM inhibition Assays
# In order to assess the inhibitory action of the compounds against ATM in vitro, the following assay was used to determine IC50 values.
# ATM protein was immunoprecipitated from HeLa cell nuclear extract using rabbit polyclonal anti-sera raised to the C-terminal ˜500 amino-acid residues of the human ATM protein. The immunoprecipitation was performed according to the methodology described by Banin, S. et al. (1998). 10 μl of immunoprecipitated ATM in Buffer C (50 mM Hepes, pH 7.4, 6 mM MgCl2, 150 mM NaCl, 0.1 mM sodium orthovanadate, 4 mM MnCl2, 0.1 mM dithiothreitol, 10% glycerol) was added to 32.5 μl of buffer C containing 1 μg of the ATM substrate GSTp53N66 in a V-bottomed 96 well polypropylene plate. The GSTp53N66 substrate is the amino terminal 66 amino acid residues of human wild type p53 fused to glutathione S-transferase. ATM phosphorylates p53 on the residue serine 15 (Banin, S. et al. (1998)). Varying concentrations of inhibitor were then added. […] After 10 minutes of incubation at 37° C., the reactions were initiated by the addition of 5 μl of 500 μM Na-ATP. After 1 hour with shaking at 37° C., 150 μl of phosphate buffered saline (PBS) was added to the reaction and the plate centrifuged at 1500 rpm for 10 minutes. 5 μl of the reaction was then transferred to a 96 well opaque white plate containing 45 μl of PBS to allow the GSTp53N66 substrate to bind to the plate wells. The plate was covered and incubated at room temperature for 1 hour with shaking before discarding the contents. The plate wells were washed twice by the addition of PBS prior to the addition of 3% (w/v) bovine serum albumin (BSA) in PBS. The plate was incubated at room temperature for 1 hour with shaking before discarding the contents and washing twice with PBS. To the wells, 50 μl of a 1:10,000 dilution of primary phosphoserine-15 antibody (Cell Signaling Technology, #9284L) in 3% BSA/PBS was added to detect the phosphorylation event on the serine 15 residue of p53 elicited by the ATM kinase. After 1 hour of incubation at room temperature with shaking, the wells were washed four times with PBS prior to the addition of an anti-rabbit HRP conjugated secondary antibody (Pierce, 31462) with shaking for 1 hour at room temperature. The wells were then washed four times with PBS before the addition of chemiluminescence reagent (NEN Renaissance, NEL105). The plate was then shaken briefly, covered with a transparent plate seal and transferred to a TopCount NXT for chemiluminescent counting. Counts per second, following a one second counting time, were recorded for each reaction.
# The enzyme activity for each compound is then calculated using the following equation: […]
# T1 sequence (Q13315 whole entry): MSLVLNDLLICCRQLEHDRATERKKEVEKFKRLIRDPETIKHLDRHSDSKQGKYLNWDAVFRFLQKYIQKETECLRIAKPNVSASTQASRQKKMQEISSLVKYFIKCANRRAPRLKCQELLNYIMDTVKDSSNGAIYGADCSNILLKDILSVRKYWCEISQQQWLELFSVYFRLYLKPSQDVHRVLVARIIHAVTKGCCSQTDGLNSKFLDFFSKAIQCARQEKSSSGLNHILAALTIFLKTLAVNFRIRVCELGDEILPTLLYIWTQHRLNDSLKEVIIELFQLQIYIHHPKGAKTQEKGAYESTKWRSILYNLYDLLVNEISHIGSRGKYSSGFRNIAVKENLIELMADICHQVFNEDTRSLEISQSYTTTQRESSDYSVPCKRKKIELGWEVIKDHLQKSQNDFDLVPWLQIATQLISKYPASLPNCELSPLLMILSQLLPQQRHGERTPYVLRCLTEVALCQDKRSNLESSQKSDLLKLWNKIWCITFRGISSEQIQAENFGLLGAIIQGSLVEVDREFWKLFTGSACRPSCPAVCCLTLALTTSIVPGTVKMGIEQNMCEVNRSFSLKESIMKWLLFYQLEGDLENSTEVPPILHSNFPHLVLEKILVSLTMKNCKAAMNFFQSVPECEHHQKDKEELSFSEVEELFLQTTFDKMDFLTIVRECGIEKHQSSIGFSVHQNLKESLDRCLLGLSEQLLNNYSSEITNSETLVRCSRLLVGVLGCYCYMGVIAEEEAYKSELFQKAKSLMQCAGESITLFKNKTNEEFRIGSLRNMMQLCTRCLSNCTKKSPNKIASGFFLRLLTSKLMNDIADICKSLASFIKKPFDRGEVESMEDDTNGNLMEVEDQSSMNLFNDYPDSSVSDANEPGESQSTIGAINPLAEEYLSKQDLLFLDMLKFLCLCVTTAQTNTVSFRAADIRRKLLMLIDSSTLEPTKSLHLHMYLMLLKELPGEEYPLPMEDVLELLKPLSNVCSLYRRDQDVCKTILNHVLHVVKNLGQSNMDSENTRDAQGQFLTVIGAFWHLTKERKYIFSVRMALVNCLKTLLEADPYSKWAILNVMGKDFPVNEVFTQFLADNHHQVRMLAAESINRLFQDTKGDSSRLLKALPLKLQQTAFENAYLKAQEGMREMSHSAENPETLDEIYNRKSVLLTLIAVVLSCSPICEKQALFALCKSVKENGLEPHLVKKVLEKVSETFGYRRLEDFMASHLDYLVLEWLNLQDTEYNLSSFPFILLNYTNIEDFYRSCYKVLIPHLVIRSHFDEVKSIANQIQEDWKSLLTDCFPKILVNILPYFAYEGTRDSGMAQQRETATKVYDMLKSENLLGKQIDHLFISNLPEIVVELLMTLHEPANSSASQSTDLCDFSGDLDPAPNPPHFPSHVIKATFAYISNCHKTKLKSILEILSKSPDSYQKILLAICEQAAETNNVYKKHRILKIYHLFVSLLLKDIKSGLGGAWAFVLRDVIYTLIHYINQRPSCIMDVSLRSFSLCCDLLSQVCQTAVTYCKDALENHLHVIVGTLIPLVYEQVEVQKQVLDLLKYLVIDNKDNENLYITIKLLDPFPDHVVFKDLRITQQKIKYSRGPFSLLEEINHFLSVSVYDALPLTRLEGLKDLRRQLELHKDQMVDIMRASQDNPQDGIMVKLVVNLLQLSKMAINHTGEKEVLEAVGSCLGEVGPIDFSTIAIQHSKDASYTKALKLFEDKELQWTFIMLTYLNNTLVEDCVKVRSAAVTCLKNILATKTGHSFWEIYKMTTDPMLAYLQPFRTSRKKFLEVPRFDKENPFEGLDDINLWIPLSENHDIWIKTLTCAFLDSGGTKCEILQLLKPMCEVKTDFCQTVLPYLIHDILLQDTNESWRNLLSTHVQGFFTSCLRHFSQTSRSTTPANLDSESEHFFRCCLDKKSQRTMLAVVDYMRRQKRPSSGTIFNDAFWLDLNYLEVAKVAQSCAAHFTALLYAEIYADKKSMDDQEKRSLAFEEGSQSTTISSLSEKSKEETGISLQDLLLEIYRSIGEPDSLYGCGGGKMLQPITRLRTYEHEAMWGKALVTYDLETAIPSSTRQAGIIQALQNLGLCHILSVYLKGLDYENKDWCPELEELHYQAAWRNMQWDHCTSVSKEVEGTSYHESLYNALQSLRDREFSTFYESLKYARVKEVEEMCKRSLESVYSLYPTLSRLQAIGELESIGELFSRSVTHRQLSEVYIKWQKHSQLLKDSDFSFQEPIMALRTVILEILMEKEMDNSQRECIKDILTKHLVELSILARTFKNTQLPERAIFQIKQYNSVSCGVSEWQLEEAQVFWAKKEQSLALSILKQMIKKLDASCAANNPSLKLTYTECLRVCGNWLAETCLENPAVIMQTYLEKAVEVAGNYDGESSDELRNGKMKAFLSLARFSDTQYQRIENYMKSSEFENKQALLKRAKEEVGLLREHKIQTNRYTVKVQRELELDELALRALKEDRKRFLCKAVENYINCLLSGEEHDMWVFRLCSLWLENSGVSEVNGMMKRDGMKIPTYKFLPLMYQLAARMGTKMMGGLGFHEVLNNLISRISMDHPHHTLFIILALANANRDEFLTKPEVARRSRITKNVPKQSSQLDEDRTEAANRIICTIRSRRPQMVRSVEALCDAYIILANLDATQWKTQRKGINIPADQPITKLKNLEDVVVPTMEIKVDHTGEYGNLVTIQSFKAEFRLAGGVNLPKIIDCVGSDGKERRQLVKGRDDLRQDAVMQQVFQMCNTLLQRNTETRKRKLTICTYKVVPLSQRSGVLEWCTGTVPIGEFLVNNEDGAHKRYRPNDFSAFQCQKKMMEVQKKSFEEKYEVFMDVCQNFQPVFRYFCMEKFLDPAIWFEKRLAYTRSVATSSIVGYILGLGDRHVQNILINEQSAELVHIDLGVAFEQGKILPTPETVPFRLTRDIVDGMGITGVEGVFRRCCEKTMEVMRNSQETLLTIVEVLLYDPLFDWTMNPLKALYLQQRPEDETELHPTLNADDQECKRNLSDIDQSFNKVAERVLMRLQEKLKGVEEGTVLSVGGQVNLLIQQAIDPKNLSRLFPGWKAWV
row,IC50 [nM],Compound
1,< 200,"O=c1cc(-c2cccc3c2Sc2ccccc2CC3)oc(N2CCOCC2)c1 [Compound 133, 2-(10,11-Dihydro-dibenzo[b,f]thiepin-4-yl)-6-morpholin-4-yl-pyran-4-one]"
2,< 200,O=C(Nc1ccc2c(c1)Cc1cccc(-c3cc(=O)cc(N4CCOCC4)o3)c1S2)C1CCC1 [Compound 32]
3,< 200,O=C(CN1CCCCCC1)Nc1ccc2c(c1)Cc1cccc(-c3cc(=O)cc(N4CCOCC4)o3)c1S2 [Compound 61]
4,< 200,COC(=O)CCCC(=O)Nc1ccc2c(c1)Cc1cccc(-c3cc(=O)cc(N4CCOCC4)o3)c1S2 [Compound 25]
5,< 200,CN1CCCN(CC(=O)Nc2ccc3c(c2)Cc2cccc(-c4cc(=O)cc(N5CCOCC5)o4)c2S3)CC1 [Compound 59]
6,< 200,CC(=O)OC(C(=O)Nc1ccc2c(c1)Cc1cccc(-c3cc(=O)cc(N4CCOCC4)o3)c1S2)c1ccccc1 (stereo not drawn) [Compound 41]
7,< 200,CNC(=O)c1ccc2c(c1)Sc1cccc(-c3cc(=O)cc(N4CCOCC4)o3)c1S2 [Compound 139]
8,< 200,CN1CCN(CCC(=O)Nc2ccc3c(c2)Cc2cccc(-c4cc(=O)cc(N5CCOCC5)o4)c2S3)CC1 [Compound 71]
9,< 200,O=C(c1ccc2c(c1)Sc1cccc(-c3cc(=O)cc(N4CCOCC4)o3)c1S2)N1CCOCC1 [Compound 160]
10,< 200,CN(C)C(=O)c1ccc2c(c1)Sc1cccc(-c3cc(=O)cc(N4CCOCC4)o3)c1S2 [Compound 140]
11,< 200,O=C(NCCN1CCOCC1)c1ccc2c(c1)Sc1cccc(-c3cc(=O)cc(N4CCOCC4)o3)c1S2 [Compound 177]
12,< 200,Cc1cc(C(=O)Nc2ccc3c(c2)Cc2cccc(-c4cc(=O)cc(N5CCOCC5)o4)c2S3)c(C)o1 [Compound 42]
13,< 200,O=C(Nc1ccc2c(c1)Cc1cccc(-c3cc(=O)cc(N4CCOCC4)o3)c1S2)c1ccco1 [Compound 27]
14,< 200,O=C(Nc1ccc2c(c1)Cc1cccc(-c3cc(=O)cc(N4CCOCC4)o3)c1S2)c1ccno1 [Compound 47]
15,< 200,O=C(Nc1ccc(-c2cc(=O)cc(N3CCOCC3)o2)c2c1Cc1ccccc1S2)c1ccc[nH]1 [Compound 128]
16,< 200,O=C(CN1CCCNCC1)Nc1ccc2c(c1)Cc1cccc(-c3cc(=O)cc(N4CCOCC4)o3)c1S2 [Compound 60]
17,< 200,O=C(Nc1ccc(-c2cc(=O)cc(N3CCOCC3)o2)c2c1Cc1ccccc1S2)c1ccc2c(c1)OCO2 [Compound 115]
18,< 200,O=C(CCN1CCCCCC1)Nc1ccc2c(c1)Cc1cccc(-c3cc(=O)cc(N4CCOCC4)o3)c1S2 [Compound 79]
19,< 200,O=C(O)C(F)(F)C(F)(F)C(=O)Nc1ccc2c(c1)Cc1cccc(-c3cc(=O)cc(N4CCOCC4)o3)c1S2 [Compound 50]
20,< 200,COc1ccc(CNCCC(=O)Nc2ccc3c(c2)Cc2cccc(-c4cc(=O)cc(N5CCOCC5)o4)c2S3)cc1 [Compound 81]
21,< 200,CN1CCN(NC(=O)c2ccc3c(c2)Sc2cccc(-c4cc(=O)cc(N5CCOCC5)o4)c2S3)CC1 [Compound 164]
22,< 200,O=C(Nc1ccc(-c2cc(=O)cc(N3CCOCC3)o2)c2c1Cc1ccccc1S2)c1ccco1 [Compound 107]
23,< 200,"O=c1cc(-c2cccc3c2Sc2ccccc2N3)oc(N2CCOCC2)c1 [Compound 135, 2-Morpholin-4-yl-6-(10H-phenothiazin-4-yl)-pyran-4-one]"
24,< 200,CN(C)c1ccc(CNC(=O)c2ccc3c(c2)Sc2cccc(-c4cc(=O)cc(N5CCOCC5)o4)c2S3)cc1 [Compound 169]

row,IC50 [nM],Compound
1,< 200,"Nc1ccc(-c2cc(=O)cc(N3CCOCC3)o2)c2c1Cc1ccccc1S2 [Compound 106, 2-(1-Amino-9H-thioxanthen-4-yl)-6-morpholin-4-yl-pyran-4-one]"
2,< 200,O=C(Nc1ccc2c(c1)Cc1cccc(-c3cc(=O)cc(N4CCOCC4)o3)c1S2)c1cc(F)cc2c1OCOC2 [Compound 44]
3,< 200,O=C(NCc1cccnc1)c1ccc2c(c1)Sc1cccc(-c3cc(=O)cc(N4CCOCC4)o3)c1S2 [Compound 171]
4,< 200,CC(C)NC(=O)c1ccc2c(c1)Sc1cccc(-c3cc(=O)cc(N4CCOCC4)o3)c1S2 [Compound 146]
5,< 20000,"O=c1cc(-c2ccc(F)c3c(=O)c4ccccc4sc23)oc(N2CCOCC2)c1 [Compound 13, 2-(1-Fluoro-9-oxo-9H-thioxanthen-4-yl)-6-morpholin-4-yl-pyran-4-one]"
6,< 200,"O=c1cc(-c2ccc(O)c3c2Cc2ccccc2S3)oc(N2CCOCC2)c1 [Compound 87, 2-(4-Hydroxy-9H-thioxanthen-1yl)-6-morpholin-4-yl-pyran-4-one]"
7,< 200,O=C(CNCCCN1CCOCC1)Nc1ccc2c(c1)Cc1cccc(-c3cc(=O)cc(N4CCOCC4)o3)c1S2 [Compound 62]
8,< 200,"O=c1cc(-c2ccc(F)c3c2Sc2ccccc2C3)oc(N2CCOCC2)c1 [Compound 17, 2-(1-Fluoro-9H-thioxanthen-4-yl)-6-morpholin-4-yl-pyran-4-one]"
9,< 200,CC(=O)OCC(=O)Nc1ccc2c(c1)Cc1cccc(-c3cc(=O)cc(N4CCOCC4)o3)c1S2 [Compound 40]
10,< 200,O=C(NNC(=O)c1ccc2c(c1)Sc1cccc(-c3cc(=O)cc(N4CCOCC4)o3)c1S2)c1ccccc1 [Compound 162]
11,< 200,"CC(C)(C)OC(=O)Nc1ccc2c(c1)Cc1cccc(-c3cc(=O)cc(N4CCOCC4)o3)c1S2 [Compound 19, [5-(6-Morpholin-4-yl-4-oxo-4H-pyran-2-yl)-9H-thioxanthen-2-yl]-carbamic acid tert-butyl ester]"
12,< 200,O=C(CCN1CCNCC1)Nc1ccc2c(c1)Cc1cccc(-c3cc(=O)cc(N4CCOCC4)o3)c1S2 [Compound 70]
13,< 200,O=C(NCCCN1CCOCC1)c1ccc2c(c1)Sc1cccc(-c3cc(=O)cc(N4CCOCC4)o3)c1S2 [Compound 178]
14,< 200,"O=c1cc(-c2cccc3c2Oc2ccccc2S3)oc(N2CCOCC2)c1 [Compound 5, 2-Phenoxathiin-4-yl-6-morpholin-4-yl-pyran-4-one]"
15,< 200,O=C(Nc1ccc2c(c1)Cc1cccc(-c3cc(=O)cc(N4CCOCC4)o3)c1S2)c1ccncc1 [Compound 28]
16,< 200,O=C(CCSc1ncn[nH]1)Nc1ccc2c(c1)Cc1cccc(-c3cc(=O)cc(N4CCOCC4)o3)c1S2 [Compound 82]
17,< 200,COC(=O)C(=O)Nc1ccc2c(c1)Cc1cccc(-c3cc(=O)cc(N4CCOCC4)o3)c1S2 [Compound 34]
18,< 200,O=C(CCN(CCO)CCO)Nc1ccc2c(c1)Cc1cccc(-c3cc(=O)cc(N4CCOCC4)o3)c1S2 [Compound 72]
19,< 200,O=c1cc(-c2ccc(NS(=O)(=O)Cc3ccccc3)c3c2Sc2ccccc2C3)oc(N2CCOCC2)c1 [Compound 130]
20,< 200,COCC(=O)Nc1ccc2c(c1)Cc1cccc(-c3cc(=O)cc(N4CCOCC4)o3)c1S2 [Compound 22]
21,< 200,O=C(NCc1ccccn1)c1ccc2c(c1)Sc1cccc(-c3cc(=O)cc(N4CCOCC4)o3)c1S2 [Compound 170]
22,< 200,CC(=O)Oc1ccccc1C(=O)Nc1ccc2c(c1)Cc1cccc(-c3cc(=O)cc(N4CCOCC4)o3)c1S2 [Compound 37]
23,< 200,O=c1cc(-c2ccc(OCCNCCO)c3c2Cc2ccccc2S3)oc(N2CCOCC2)c1 [Compound 93]
24,< 200,O=C(c1ccc2c(c1)Sc1cccc(-c3cc(=O)cc(N4CCOCC4)o3)c1S2)N1CCCCCC1 [Compound 161]
